Assay results: the supplement of paper PMC10307832

Legend:
Test in all cases: relative viability (nuclei count vs DMSO), 5 days (fraction); higher = more cells survive
XMD13-2 + OSI-027 = compound: C1CC1C(=O)NC2=NNC3=C2C=CC(=C3)C4=CC(=CC=C4)C(=O)NC5CC5 [XMD13-2] + COc1cccc2cc(-c3nc([C@H]4CC[C@H](C(=O)O)CC4)n4ncnc(N)c34)[nH]c12 [OSI-027] (partner 0.5 µM)
Summary of the method: (§1)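 For relative viability, nuclei counts in treated wells were divided by those in vehicle wells. Lung cancer cell lines had been pin-tool dosed in 1536-well plates the day after seeding and cultured for 5 days, then fixed and stained in one step (final 0.05% Triton X-100, 1% formaldehyde, 1 ug/ml Hoechst) and imaged at 4×. Doses were one drug alone or a fixed anchor-drug dose plus five library-drug doses (not always all listed) in √10 steps, and values are duplicate-plate medians.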

ALW-II-49-7 + Olaparib = compound: Cc1ccc(C(=O)Nc2cccc(C(F)(F)F)c2)cc1Nc1cncc(C(N)=O)c1 [ALW-II-49-7] + O=C(c1cc(Cc2n[nH]c(=O)c3ccccc23)ccc1F)N1CCN(C(=O)C2CC2)CC1 [Olaparib] (partner 8 µM)
Summary of the method: as §1

Dasatinib + AZD7762 = compound: Cc1nc(Nc2ncc(C(=O)Nc3c(C)cccc3Cl)s2)cc(N2CCN(CCO)CC2)n1 [Dasatinib] + NC(=O)Nc1cc(-c2cccc(F)c2)sc1C(=O)N[C@H]1CCCNC1 [AZD7762] (partner 0.2 µM)
Summary of the method: as §1

Dasatinib + Alpelisib = compound: Cc1nc(Nc2ncc(C(=O)Nc3c(C)cccc3Cl)s2)cc(N2CCN(CCO)CC2)n1 [Dasatinib] + Cc1nc(NC(=O)N2CCC[C@H]2C(N)=O)sc1-c1ccnc(C(C)(C)C(F)(F)F)c1 [Alpelisib] (partner 2 µM)
Summary of the method: as §1

Cell Line	relative viability (XMD13-2 + OSI-027; first compound 0.05 µM)	relative viability (XMD13-2 + OSI-027; first compound 0.1581 µM)	relative viability (XMD13-2 + OSI-027; first compound 0.5 µM)	relative viability (XMD13-2 + OSI-027; first compound 1.581 µM)	relative viability (XMD13-2 + OSI-027; first compound 5 µM)	relative viability (ALW-II-49-7 + Olaparib; first compound 0.08 µM)	relative viability (ALW-II-49-7 + Olaparib; first compound 0.253 µM)	relative viability (ALW-II-49-7 + Olaparib; first compound 0.8 µM)	relative viability (ALW-II-49-7 + Olaparib; first compound 2.53 µM)	relative viability (ALW-II-49-7 + Olaparib; first compound 8 µM)	relative viability (Dasatinib + AZD7762; first compound 0.005 µM)	relative viability (Dasatinib + AZD7762; first compound 0.01581 µM)	relative viability (Dasatinib + AZD7762; first compound 0.05 µM)	relative viability (Dasatinib + AZD7762; first compound 0.1581 µM)	relative viability (Dasatinib + AZD7762; first compound 0.5 µM)	relative viability (Dasatinib + Alpelisib; first compound 0.005 µM)	relative viability (Dasatinib + Alpelisib; first compound 0.01581 µM)	relative viability (Dasatinib + Alpelisib; first compound 0.05 µM)	relative viability (Dasatinib + Alpelisib; first compound 0.1581 µM)	relative viability (Dasatinib + Alpelisib; first compound 0.5 µM)
ChaGo-K-1	0.642	0.545	0.597	0.542	0.497	0.384	0.427	0.394	0.411	0.39	0.854	0.77	0.822	0.705	0.549	–	–	–	–	–
EBC-1	–	–	–	–	–	0.724	0.794	0.676	0.646	0.688	–	–	–	–	–	0.78	0.755	0.579	0.579	0.463
EKVX	0.832	0.68	0.78	0.682	0.863	0.77	0.847	0.823	0.374	0.855	0.684	0.663	0.515	0.221	0.172	0.774	0.637	0.651	0.557	0.145
EMC-BAC-2	0.394	0.4	0.383	0.366	0.358	0.482	0.475	0.445	0.396	0.367	1.05	1.03	0.776	0.591	0.391	0.632	0.478	0.466	0.285	0.194
EPLC-272H	0.313	0.257	0.281	0.238	0.247	0.609	0.468	0.506	0.711	0.64	0.222	0.245	0.173	0.125	0.147	1.08	0.913	1.02	0.777	0.244
H3255	0.705	0.536	0.589	0.564	0.549	0.516	0.549	0.492	0.537	0.477	0.899	0.856	0.832	0.686	0.372	0.68	0.621	0.63	0.434	0.24
HARA	0.661	0.438	0.43	0.446	0.636	0.556	0.584	0.551	0.626	1.07	0.31	0.129	0.298	0.291	0.184	0.778	0.723	0.57	0.27	0.193
HCC-15	0.765	0.723	0.733	0.546	0.484	0.757	0.689	0.719	0.577	0.648	1.37	1.12	1.07	0.897	0.585	0.875	0.783	0.779	0.53	0.528
HCC-44	0.565	0.57	0.507	0.381	0.438	0.928	1.04	0.995	0.957	0.935	1.07	0.992	1.19	1.33	1.1	0.789	0.705	0.676	0.271	0.183
